These are literature values, as cited in US5667811A, “Na-K-ATPase inhibiting natriuretic substances” (The Regents of the University of California, priority 1992, dated 1997).

No end group written: not given here.

The test system of data set [1] is active transport. The conditions noted are these: literature.
Data set [2] concerns Na-K-ATPase. The conditions noted are these: literature.

Turning to “ANF: atrial natriuretic factor, synthesized or stored in cardiac atria (SLRRSSCFGGRMDRIGAQSGLGCNSFRY; ends and bridges not checked; cysteine pairing not given here; UniProt P01160 124-151, looked up)”, in data set [1], the “inhibition of active transport” value was “does not inhibit active transport”. Consider lysophosphatidyl choline, for which, in data set [2], the Na-K-ATPase inhibition result was “potent Na-K-ATPase inhibitors”.
